Assay results reported in patent publication US20240254118A1, “PRMT5 INHIBITORS AND USES THEREOF” (Gilead Sciences, Inc., priority 2022, published 2024).

Experiments:
[1] = tested on: SDMA signal (PRMT5 inhibition) in HCT116 MTAP-deleted cells; assay: Symmetric di-methyl arginine image-based high content screen assay (SDMA assay), HCT116 MTAP-deleted; format: cell-based; conditions: SDMA assay; for EC50: Homo sapiens, HCT-116, 72 h, 3 days of treatment, cell line not given, taken as HCT116 MTAP-deleted, read-out: EC50 (SDMA assay); for EC50 selectivity (SDMA assay): taken as HCT116 WT versus MTAP-deleted
Procedure: Symmetric di-methyl arginine image-based high content screen assay (SDMA assay) was performed in HCT116 WT and HCT116 MTAP-deleted cell lines to measure Symmetric Di-methyl Arginine (SDMA) signal reduction after selective PRMT5 inhibition in the MTAP-deleted cells.
Briefly, the same compound plates were generated as mentioned in the previous section of Cell viability assay on Day −1.
On Day 3, the cells were fixed by adding 45 μl of 8% neutralized formalin solution to each well using EL460 liquid dispenser 5 μl cassette and the cells were incubated for 30 minutes at room temperature. The formalin solution was washed off with […] phosphate buffered saline (dPBS), the 0.1% Triton X-100 solution in dPBS was used to permeabilize the cells for 15 minutes at room temperature. The triton solution was aspirated, 50 μl of Odyssey Blocking buffer+0.05% Tween20 was added and the plate was incubated at room temperature for 30 minutes.
The blocking solution was removed, a 20 μl of SDMA antibody (Cell Signaling Technology, Cat no. 13222) diluted 1:500 in Odyssey Blocking buffer+0.05% Tween20 was added and the plate was incubated at 4° C. overnight. Next day, the primary SDME antibody solution was washed from each well three times with 0.05% Tween20 in dPBS (PBST).
A 30 μl of the secondary antibody, a Goat anti-Rabbit Alexa Fluor Plus 488 (Invitrogen, Cat no. PIA32731) was diluted 1:500 in Odyssey Blocking buffer+0.05% Tween20 and the plate was incubated for 1.5 hours in dark at room temperature. The secondary antibody solution was removed, 30 μl of 5 mg/ml DAPI solution diluted 1:2000 in dPBS was added and the plate was incubated for 30 minutes in dark at room temperature. The DAPI solution was aspirated and the wells were washed six times with dPBS.
The SDMA signal and DAPI signal per cell were counted using a Cellomics CX7 LZR instrument reading under 488 and 405 nm laser, respectively. The SDMA signal was quantified by mean average intensity per cell from Alexa Fluor Plus 488 after the cell was defined with DAPI.

[2] = tested on: HCT116 MTAP-deleted cells; assay: Cell viability assay (CellTiter-Glo, 7 days), HCT116 MTAP-deleted; conditions: Homo sapiens, HCT-116, 168 h

Structure (SMILES): Cn1ncc2c(N)nc3ccc(C(=O)N(Cc4ccc(C(F)(F)F)cc4)N4CCCOC4=O)cc3c21 [Example 3, 4-amino-1-methyl-N-(2-oxo-1,3-oxazinan-3-yl)-N-(4-(trifluoromethyl)benzyl)-1H-pyrazolo[4,3-c]quinoline-8-carboxamide]
- EC50 [1]: < 1 nM
- EC50 selectivity (SDMA assay) [1]: 123
- CC50 [2]: < 100 nM

Structure (SMILES): CC(=O)N(C)N(Cc1ccccc1Cl)C(=O)c1ccc2nc(N)c3cnn(C)c3c2c1 [Example 183, N′-acetyl-4-amino-N-(2-chlorobenzyl)-N′,1-dimethyl-1H-pyrazolo[4,3-c]quinoline-8-carbohydrazide]
- EC50 [1]: 1 to 5 nM
- EC50 selectivity (SDMA assay) [1]: 300
- CC50 [2]: < 100 nM

Structure (SMILES): CCOC(=O)N(C)N(Cc1ccc(C(F)(F)F)cn1)C(=O)c1ccc2nc(N)c3cnn(C)c3c2c1 [Example 38, ethyl N-[(4-amino-1-methyl-pyrazolo[4,3-c]quinoline-8-carbonyl)-[[5-(trifluoromethyl)-2-pyridyl]methyl]amino]-N-methyl-carbamate]
- EC50 [1]: < 1 nM
- EC50 selectivity (SDMA assay) [1]: 12
- CC50 [2]: < 100 nM

Structure (SMILES): CN(C(=O)c1ccnn1C)N(Cc1ccc(C(F)(F)F)cn1)C(=O)c1ccc2nc(N)c3cnn(C)c3c2c1 [Example 175, 4-amino-N′,1-dimethyl-N′-(1-methyl-1H-pyrazole-5-carbonyl)-N-((5-(trifluoromethyl)pyridin-2-yl)methyl)-1H-pyrazolo[4,3-c]quinoline-8-carbohydrazide]
- EC50 [1]: 1 to 5 nM
- EC50 selectivity (SDMA assay) [1]: 19
- CC50 [2]: < 100 nM

Structure (SMILES): CN(C(=O)C1(F)CC1)N(Cc1ccc(C(F)(F)F)nn1)C(=O)c1ccc2nc(N)c3cnn(C)c3c2c1 [Example 193, 4-amino-N′-(1-fluorocyclopropanecarbonyl)-N′,1-dimethyl-N-[[6-(trifluoromethyl)pyridazin-3-yl]methyl]pyrazolo[4,3-c]quinoline-8-carbohydrazide]
- EC50 [1]: < 1 nM
- EC50 selectivity (SDMA assay) [1]: 202
- CC50 [2]: < 100 nM

Structure (SMILES): CC(=O)N(C)N(Cc1ccc(C2CC2)cc1)C(=O)c1ccc2nc(N)c3cnn(C)c3c2c1 [Example 98, N′-acetyl-4-amino-N-(4-cyclopropylbenzyl)-N′,1-dimethyl-1H-pyrazolo[4,3-c]quinoline-8-carbohydrazide]
- EC50 [1]: < 1 nM
- EC50 selectivity (SDMA assay) [1]: 120
- CC50 [2]: < 100 nM

Structure (SMILES): CCN(C(C)=O)N(Cc1ccc(C(F)(F)F)cn1)C(=O)c1ccc2nc(N)c3cnn(C)c3c2c1 [Example 204, N′-acetyl-4-amino-N′-ethyl-1-methyl-N-[[5-(trifluoromethyl)-2-pyridyl]methyl]pyrazolo[4,3-c]quinoline-8-carbohydrazide]
- EC50 [1]: 1 to 5 nM
- EC50 selectivity (SDMA assay) [1]: 150
- CC50 [2]: < 100 nM

Structure (SMILES): CN(C(=O)c1ccccc1)N(Cc1ccc(C(F)(F)F)cn1)C(=O)c1ccc2nc(N)c3cnn(C)c3c2c1 [Example 37, 4-amino-N′-benzoyl-N′, 1-dimethyl-N-[[5-(trifluoromethyl)-2-pyridyl]methyl]pyrazolo[4,3-c]quinoline-8-carbohydrazide]
- EC50 [1]: 1 to 5 nM
- EC50 selectivity (SDMA assay) [1]: 141
- CC50 [2]: 100 to 1000 nM

Structure (SMILES): CC(=O)N(C)N(Cc1ccc(-c2cnoc2)cc1F)C(=O)c1ccc2nc(N)c3cnn(C)c3c2c1 [Example 227, N′-acetyl-4-amino-N-(2-fluoro-4-(isoxazol-4-yl)benzyl)-N′,1-dimethyl-1H-pyrazolo[4,3-c]quinoline-8-carbohydrazide]
- CC50 [2]: < 100 nM

Structure (SMILES): CN(C(=O)C1CC1)N(Cc1ccc(C(F)(F)F)cn1)C(=O)c1cc2c(cn1)nc(N)c1cnn(C)c12 [Example 422, 4-amino-N′-(cyclopropanecarbonyl)-N′,1-dimethyl-N-((5-(trifluoromethyl)pyridin-2-yl)methyl)-1H-pyrazolo[4,3-c][1,7]naphthyridine-8-carbohydrazide]
- CC50 [2]: 100 to 1000 nM

Structure (SMILES): Cn1ncc2c(N)nc3cc(F)c(C(=O)N(Cc4ccc(C(F)(F)F)cn4)N4CCOC(C(F)(F)F)C4)cc3c21 (stereo not drawn) [Example 427, 4-amino-7-fluoro-1-methyl-N-(2-(trifluoromethyl)morpholino)-N-((5-(trifluoromethyl)pyridin-2-yl)methyl)-1H-pyrazolo[4,3-c]quinoline-8-carboxamide]
- CC50 [2]: < 100 nM

Structure (SMILES): CC(=O)N(C)N(Cc1ccc(C(F)(F)F)c(F)c1F)C(=O)c1ccc2nc(N)c3cnn(C)c3c2c1 [Example 371, N′-acetyl-4-amino-N-(2,3-difluoro-4-(trifluoromethyl)benzyl)-N′,1-dimethyl-1H-pyrazolo[4,3-c]quinoline-8-carbohydrazide]
- CC50 [2]: < 100 nM

Structure (SMILES): CC(=O)N(C)N(Cc1ccc(-c2ccn(C(F)(F)F)n2)nc1F)C(=O)c1ccc2nc(N)c3cnn(C)c3c2c1 [Example 346, N′-acetyl-4-amino-N-((2-fluoro-6-(1-(trifluoromethyl)-1H-pyrazol-3-yl)pyridin-3-yl)methyl)-N′,1-dimethyl-1H-pyrazolo[4,3-c]quinoline-8-carbohydrazide]
- CC50 [2]: < 100 nM

Structure (SMILES): CC(=O)N(C)N(Cc1ccc(-c2cccnc2)cc1F)C(=O)c1ccc2nc(N)c3cnn(C)c3c2c1 [Example 241, N′-acetyl-4-amino-N-(2-fluoro-4-(pyridin-3-yl)benzyl)-N′,1-dimethyl-1H-pyrazolo[4,3-c]quinoline-8-carbohydrazide]
- CC50 [2]: < 100 nM

Structure (SMILES): CC(=O)N(C)N(Cc1nc2cc(F)c(F)cc2n1C)C(=O)c1ccc2nc(N)c3cnn(C)c3c2c1 [Example 424, N′-acetyl-4-amino-N-((5,6-difluoro-1-methyl-1H-benzo[d]imidazol-2-yl)methyl)-N′,1-dimethyl-1H-pyrazolo[4,3-c]quinoline-8-carbohydrazide]
- CC50 [2]: < 100 nM

Structure (SMILES): CN(C(=O)C1CC1(F)F)N(Cc1ccc(C(F)(F)F)cn1)C(=O)c1ccc2nc(N)c3cnn(C)c3c2c1 (stereo not drawn) [Example 358, 4-amino-N′-(2,2-difluorocyclopropane-1-carbonyl)-N′,1-dimethyl-N-((5-(trifluoromethyl)pyridin-2-yl)methyl)-1H-pyrazolo[4,3-c]quinoline-8-carbohydrazide]
- CC50 [2]: < 100 nM

Structure (SMILES): CC(=O)N(C)N(Cc1ccn(-c2cccc(F)c2)n1)C(=O)c1ccc2nc(N)c3cnn(C)c3c2c1 [Example 435, N′-acetyl-4-amino-N-((1-(3-fluorophenyl)-1H-pyrazol-3-yl)methyl)-N′,1-dimethyl-1H-pyrazolo[4,3-c]quinoline-8-carbohydrazide]
- CC50 [2]: < 100 nM

Structure (SMILES): CC(=O)N(C)N(Cc1ccc(-c2ccc(C(F)(F)F)cn2)cc1F)C(=O)c1ccc2nc(N)c3cnn(C)c3c2c1 [Example 224, N′-acetyl-4-amino-N-(2-fluoro-4-(5-(trifluoromethyl)pyridin-2-yl)benzyl)-N′,1-dimethyl-1H-pyrazolo[4,3-c]quinoline-8-carbohydrazide]
- CC50 [2]: < 100 nM

Structure (SMILES): CC(=O)N(C)N(Cc1ccc(-c2cnn(C(F)(F)F)c2)cc1C#N)C(=O)c1ccc2nc(N)c3cnn(C)c3c2c1 [Example 251, N′-acetyl-4-amino-N-(2-cyano-4-(1-(trifluoromethyl)-1H-pyrazol-4-yl)benzyl)-N′,1-dimethyl-1H-pyrazolo[4,3-c]quinoline-8-carbohydrazide]
- CC50 [2]: < 100 nM

Structure (SMILES): CC(=O)N(C)N(Cc1ccc(-c2cncs2)cc1F)C(=O)c1ccc2nc(N)c3cnn(C)c3c2c1 [Example 245, N′-acetyl-4-amino-N-(2-fluoro-4-(thiazol-5-yl)benzyl)-N′,1-dimethyl-1H-pyrazolo[4,3-c]quinoline-8-carbohydrazide]
- CC50 [2]: < 100 nM

Structure (SMILES): CN(C(=O)C1CC1)N(Cc1ccc(-c2cncs2)cn1)C(=O)c1ccc2nc(N)c3cnn(C)c3c2c1 [Example 355, 4-amino-N′-(cyclopropanecarbonyl)-N′,1-dimethyl-N-((5-(thiazol-5-yl)pyridin-2-yl)methyl)-1H-pyrazolo[4,3-c]quinoline-8-carbohydrazide]
- CC50 [2]: < 100 nM

Structure (SMILES): CC(=O)N(C)N(Cc1cnn(-c2ccc(C(F)(F)F)cc2)c1)C(=O)c1ccc2nc(N)c3cnn(C)c3c2c1 [Example 430, N′-acetyl-4-amino-N′,1-dimethyl-N-((1-(4-(trifluoromethyl)phenyl)-1H-pyrazol-4-yl)methyl)-1H-pyrazolo[4,3-c]quinoline-8-carbohydrazide]
- CC50 [2]: 100 to 1000 nM

Structure (SMILES): CC(=O)N(C)N(Cc1ccn(-c2ccc(F)cc2F)n1)C(=O)c1ccc2nc(N)c3cnn(C)c3c2c1 [Example 440, N′-acetyl-4-amino-N-((1-(2,4-difluorophenyl)-1H-pyrazol-3-yl)methyl)-N′,1-dimethyl-1H-pyrazolo[4,3-c]quinoline-8-carbohydrazide]
- CC50 [2]: < 100 nM
